ChEMBL document CHEMBL2028040, “Malaria Box”

How the values were obtained:
[1] = tested on: Plasmodium falciparum; experiment: MMV: Inhibition of Plasmodium falciparum 3D7 at 5uM compound concentration.; assay type: functional
[2] = tested on: Plasmodium falciparum; experiment: MMV: Inhibition of Plasmodium falciparum 3D7 (EC50).; assay type: functional, organism-based
[3] = tested on: Plasmodium falciparum; experiment: MMV: Inhibition of Plasmodium falciparum K1 (EC50).; assay type: functional, organism-based
[4] = tested on: Trypanosoma cruzi; experiment: MMV: Inhibition of Trypanosoma cruzi (Tulahuen C4 LacZ) (Chagas in vitro).; assay type: functional, organism-based
[5] = tested on: Trypanosoma brucei brucei; experiment: MMV: Inhibition of Trypanosoma brucei brucei (Squib 427) (HAT in vitro).; assay type: functional, organism-based
[6] = tested on: Trypanosoma brucei rhodesiense; experiment: MMV: Inhibition of Trypanosoma brucei rhodesiense (STIB 900) (HAT in vitro).; assay type: functional, organism-based
[7] = tested on: Leishmania infantum; experiment: MMV: Inhibition of Leishmania infantum (MHOM/MA/BE/67) in vitro.; assay type: functional, organism-based
[8] = MMV: Cytotoxicity against human fibroblasts (MRC-5) cells.; details: MRC-5 cells (human fibroblasts)

Compound	inhibition at 5 µM [1]	EC50 [2]	EC50 [3]	IC50 [4]	IC50 [5]	IC50 [6]	IC50 [7]	IC50 [8]
CCCCCC(=O)N1c2ccccc2N=C2CC(c3ccc(OC)c(OC)c3)CC(O)=C2C1c1ccc(C(F)(F)F)cc1 (stereo not given)	100%	0.237 µM	0.288 µM	12.1 µM	4.06 µM	1.69 µM	25.4 µM	> 32 µM
FC(F)(F)c1cccc(Nc2nc3ccccc3nc2Nc2cccc(C(F)(F)F)c2)c1	99%	0.313 µM	0.501 µM	3.75 µM	3.78 µM	4 µM	4.06 µM	9.31 µM
Cc1ccc(C(=O)c2oc3ccc4c(C)cc(=O)oc4c3c2C)cc1	96%	0.906 µM	1.04 µM	> 32 µM	> 32 µM	> 32 µM	> 32 µM	21.2 µM
CCC(O)c1ccc(Br)cc1NC(=O)c1cccc(Cl)c1 (stereo not given)	97%	0.64 µM	0.419 µM	> 32 µM	15.3 µM	4.54 µM	> 32 µM	> 32 µM
CC(C)(C)c1ccc(O)c(CNC2CCCCC2)c1	96%	0.161 µM	0.0458 µM	21.2 µM	3.78 µM	4 µM	16 µM	> 32 µM
CCOc1cc(Cl)c(C(C)NC(=O)c2cccc(OC)c2)cc1OCC (stereo not given)	98%	0.728 µM	1.36 µM	18.7 µM	> 32 µM	21 µM	> 32 µM	6.59 µM
CC(=O)Nc1nnc(SCc2c(C)cc(C(C)(C)C)cc2C)s1	96%	0.871 µM	0.843 µM	> 32 µM	> 32 µM	> 32 µM	> 32 µM	> 32 µM
CCCCOC(=O)c1ccc(Nc2cc(C)nc3ccc(OC)cc23)cc1	99%	0.584 µM	2.14 µM	3.67 µM	3.94 µM	3.51 µM	4.76 µM	14.3 µM
CC(NCc1ccccc1)c1cc(Cl)ccc1O (stereo not given)	95%	0.603 µM	0.243 µM	> 32 µM	> 32 µM	16 µM	> 32 µM	> 32 µM
O=c1cc(NC2CCN(CCCc3ccccc3)CC2)c2cc(Cl)ccc2o1	97%	0.846 µM	0.532 µM	15.6 µM	15 µM	4.09 µM	10.1 µM	> 32 µM
COc1ccc(C=C2SC(Nc3ccc(F)cc3)=NC2=O)c(OC)c1	92%	0.591 µM	0.825 µM	> 32 µM	> 32 µM	> 32 µM	> 32 µM	> 32 µM
COc1ccccc1NC1=C(N2CCCCC2)C(=O)c2ccccc2C1=O	98%	0.0053 µM	0.01 µM	< 0.125 µM	1.01 µM	0.315 µM	3.01 µM	9.88 µM
Oc1ccccc1CNCC12CC3CC(CC(C3)C1)C2	96%	0.0226 µM	0.0068 µM	> 32 µM	15.7 µM	16 µM	17.3 µM	> 32 µM
COc1ccc(Br)cc1C1Nc2ccc3ccccc3c2C2=C1C(=O)CC(c1ccccc1)C2 (stereo not given)	95%	0.18 µM	0.4 µM	1.12 µM	4.06 µM	1.06 µM	> 32 µM	> 32 µM
CC1CCN(Cc2ccc(NC(=O)c3cc4ccc5cccnc5c4[nH]3)cc2)CC1	97%	0.274 µM	0.773 µM	2.2 µM	1.41 µM	0.861 µM	3.01 µM	1.45 µM
